This note sets out measurements from publication PMC12527034, “R103 and R115 Affinity Mutants of ATeam ATP Biosensors” (Sensors (Basel, Switzerland), 2025).

The subject of test [1] is HEK293 cells. The test can be described thus: Live-cell imaging of metabolic inhibition (sensitized FRET emission ratio). The format is cell-based. Here is the method: Microscopy. HEK293 cells were cultured in low-glucose Dulbecco’s modified Eagle’s medium supplemented with 10% cosmic calf serum (Gibco, Thermo Fisher Scientific, Waltham, MA, USA). For imaging studies, cells were plated on 18 mm #1.5 coverslips and transfected with Effectene (Qiagen, Germantown, MD, USA) or by the calcium phosphate method. Prior to imaging, cells were equilibrated for at least 20 min at room temperature in imaging solution (15 mM HEPES, pH 7.3, 1.25 mM NaH2PO4, 130 mM NaCl, 3 mM KCl, 2 mM CaCl2, 1 mM MgCl2, 3 mM NaHCO3) supplemented with a glucose concentration dependent on the specific experiment. Live-cell microscopy was carried out at room temperature on an Olympus IX83 inverted fluorescence microscope with a 20X/0.75 NA air objective illuminated by a Lumencor SpectraX light engine and imaged with an Andor Zyla 4.2 sCMOS camera. An ECFP/EYFP/mCherry multiband beamsplitter (Chroma 69008bs) was used with bandpass excitation and emission filters for each channel: cyan 438/29 nm and 470/24 nm; yellow 510/10 nm and 540/30 nm; sensitized FRET 438/29 nm and 540/30 nm; red 575/25 nm and 631/28 nm. Andor iQ3 software was used for image acquisition, and ImageJ/FIJI was used for image analysis. […] Cell masks were created using a threshold of two times the background and applied to background-subtracted images. […]

In test [2] the target is T1, ATeam3.10 (WT) (Bacillus sp. PS3, UniProt A0A0M5MQR7).
T1 construct: gene uncC; epsilon subunit flanked by mseCFP and mVenus; polyhistidine-tagged, expressed in E. coli BL21(DE3)
Nature of the test: Steady-state FRET ratio ADP dose response of 0.125 uM purified ATeam3.10 sensor at room temperature in 50 mM MOPS-KOH pH 7.3, 50 mM KCl, 0.5 mM MgCl2, 0.05% Triton-X100 (4 to 9 replicates). The class given is binding. The note with it: n = 4; read-out: ADP Affinity Kapp. The protocol: (§1) Protein Characterization. […] Samples were measured with n = 4 to 9 replicates.
(§2) Apparent dissociation constants are summarized in (E).

The target in test [3] is T2, ATeam3.10 R103A/R115E (Bacillus sp. PS3, UniProt A0A0M5MQR7, R103A/R115E).
T2 construct: gene uncC; epsilon subunit flanked by mseCFP and mVenus; polyhistidine-tagged
The description is as above. The note with it: n = 4. The format is binding. The protocol: as §1, §2

The target of test [4] is T3, ATeam3.10 R103E (Bacillus sp. PS3, UniProt A0A0M5MQR7, R103E).
T3 construct: gene uncC; epsilon subunit flanked by mseCFP and mVenus; polyhistidine-tagged
The description is as above. The note with it: n = 4. The format is binding. Here is the method:
as §1, §2

In test [5] the target is T4, ATeam3.10 R103E/R115A (Bacillus sp. PS3, UniProt A0A0M5MQR7, R103E/R115A).
T4 construct: gene uncC; epsilon subunit flanked by mseCFP and mVenus; polyhistidine-tagged
The description is as above. The format is binding. The note with it: n = 4. The protocol: as §1, §2

The target of test [6] is T5, ATeam3.10 R103A/R115A (Bacillus sp. PS3, UniProt A0A0M5MQR7, R103A/R115A).
T5 construct: gene uncC; epsilon subunit flanked by mseCFP and mVenus; polyhistidine-tagged
The test is described as above. The class given is binding. The note with it: n = 4. Here is the method:
as §1, §2

Test [7] deals with T6, ATeam3.10 R115A (Bacillus sp. PS3, UniProt A0A0M5MQR7, R115A).
T6 construct: gene uncC; epsilon subunit flanked by mseCFP and mVenus; polyhistidine-tagged
The test is described as above. The class given is binding. The note with it: n = 4. The protocol: as §1, §2

Test [8] concerns the target T7, ATeam3.10 R115E (Bacillus sp. PS3, UniProt A0A0M5MQR7, R115E).
T7 construct: gene uncC; epsilon subunit flanked by mseCFP and mVenus; polyhistidine-tagged
The description is as above. The format is binding. The note with it: n = 4. The protocol: as §1, §2

Test [9] concerns the target T8, ATeam3.10 R103A (Bacillus sp. PS3, UniProt A0A0M5MQR7, R103A).
T8 construct: gene uncC; epsilon subunit flanked by mseCFP and mVenus; polyhistidine-tagged
The description is as above. The note with it: n = 4. The class given is binding. Here is the method:
as §1, §2

Test [10] deals with T9, ATeam3.10 R103E/R115E (Bacillus sp. PS3, UniProt A0A0M5MQR7, R103E/R115E). Nature of the test: biochemical. On the set-up: gene uncC. The note with it: n = 4.
Protocol: Assays were carried out at room temperature with 0.125 µM protein in assay buffer (50 mM MOPS-KOH, pH 7.3, 50 mM KCl, 0.5 mM MgCl2, 0.05% Triton-X100). ATP stocks were neutralized to pH 7, and a total MgCl2 concentration was added to maintain 0.5 mM free Mg^2+ [21]. Samples were prepared in clear-bottom, black 96-well plates (Greiner Bio-One, Monroe, NC, USA). Sensor protein and ATP at a concentration dictated by each point on the dose–response curve were added to a single well with assay buffer and allowed to equilibrate. Samples were measured with n = 4 to 9 replicates. Steady-state fluorescence was measured on a BioTek Synergy H4 using 420/50 nm excitation and 485/20 nm or 528/20 nm emission bandpass filters (BioTek, Winooski, VT, USA). Donor fluorescence lifetimes were measured using an Edinburgh Instruments FS5+ time-resolved fluorometer with an NKT-Fianium WhiteLaseMicro supercontinuum pulsed laser (Edinburgh Instruments, Livingston, UK). Donor fluorescence lifetime distribution analysis was carried out using the MemExp software [22, 23, 24].
ADP dose responses were measured using purified protein in solution. FRET ratios were calculated as sensitized acceptor emission-to-donor emission ratios. […] ADP dose response curves for (C) single and (D) double mutants.
Test [11] addresses T1, ATeam3.10 (WT). Nature of the test: Steady-state FRET ratio ATP dose response of 0.125 uM purified ATeam3.10 sensor at room temperature in 50 mM MOPS-KOH pH 7.3, 50 mM KCl, 0.5 mM free Mg2+, 0.05% Triton-X100 (4 to 9 replicates). The format is binding. The note with it: SD, n = 4; read-out: ATP Affinity Kapp. Here is the method:
as §1
(§3) We measured the ATP dose–response curves for all combinations of single and double mutants consisting of R-to-A charge neutralization or R-to-E charge reversal (Table 1, Figure 2). […] The difference between our observations likely reflects the sensitivity of the ε subunit to the label used. Kato-Yamada used a relatively small Cy3 label with a cysteine mutant (Q107C) of the ε subunit, whereas the ε subunit is fused to two large fluorescent proteins in ATeam3.10. Despite this difference, the increase in affinity could still be of particular use for developing an ATeam-based sensor to detect the low levels of extracellular ATP [2, 3, 11, 13, 25].
(§4) Figure 2 ATeam3.10 R103 and R115 single and double mutants tune ATP affinity. ATP dose responses were measured using purified protein in solution. […] Apparent dissociation constants are summarized in (E).

Test [12] deals with T2, ATeam3.10 R103A/R115E. The test is described as above. The class given is binding. The note with it: SD, n = 4; read-out: ATP Affinity Kapp. The protocol: as §1, §3, §4
Test [13] addresses T3, ATeam3.10 R103E. Described as above. The format is binding. The note with it: SD, n = 4; read-out: ATP Affinity Kapp. Here is the method:
as §1, §3, §4

For test [14], the target named is T4, ATeam3.10 R103E/R115A. The description is as above. The class given is binding. The note with it: SD, n = 4; read-out: ATP Affinity Kapp. The protocol: as §1, §3, §4
Test [15] has as its target T5, ATeam3.10 R103A/R115A. The description is as above. The class given is binding. The note with it: SD, n = 4; read-out: ATP Affinity Kapp. The protocol: as §1, §3, §4
The target of test [16] is T6, ATeam3.10 R115A. The description is as above. The note with it: SD, n = 4; read-out: ATP Affinity Kapp. The class given is binding. Here is the method:
as §1, §3, §4

For test [17], the target named is T7, ATeam3.10 R115E. The description is as above. The format is binding. The note with it: SD, n = 4; read-out: ATP Affinity Kapp. The protocol:
as §1, §3, §4

The target in test [18] is T8, ATeam3.10 R103A. The description is as above. The format is binding. The note with it: SD, n = 4; read-out: ATP Affinity Kapp. The protocol:
as §1, §3, §4

Test [19] has as its target T10, ATeam1.03 (WT) (Bacillus subtilis, UniProt P37812).
T10 construct: gene atpC; epsilon subunit flanked by mseCFP and mVenus; polyhistidine-tagged, expressed in E. coli BL21(DE3)
Nature of the test: Steady-state FRET ratio ATP dose response of 0.125 uM purified ATeam1.03 or ATeam1.03YEMK sensor at room temperature in 50 mM MOPS-KOH pH 7.3, 50 mM KCl, 0.5 mM free Mg2+, 0.05% Triton-X100 (4 to 9 replicates). The note with it: SD, n = 4; read-out: ATP Affinity Kapp (ATeam1.03 and ATeam1.03YEMK). The format is binding. Here is the method:
as §1
(§5) Figure 4 All ATeam1.03 R103 and R115 single and double mutants cause loss of ATP affinity. ATP dose responses were measured using purified protein in solution. […] (A) Example fluorescence emission spectra for (A) wildtype ATeam1.03 and (B) the non-binding R103A/R115A double mutant.
(§6) Figure 5 ATeam1.03YEMK R103 and R115 single and double mutants tune ATP affinity. ATP dose responses were measured using purified protein in solution. […] (A) Example fluorescence emission spectra for (A) wildtype ATeam1.03YEMK, (B) the R103A/R115A double mutant, and (C) the R103A/R115E double mutant. ATP dose response curves for (D) single and (E) double mutants. Apparent dissociation constants are summarized in (F).

Test [20] addresses T11, ATeam1.03YEMK R115E (Bacillus subtilis, UniProt P37812, G131E/INS132K/K132M/M60Y/R115E).
T11 construct: gene atpC; YEMK epsilon subunit flanked by mseCFP and mVenus; polyhistidine-tagged
Described as above. The class given is binding. The note with it: SD, n = 4; read-out: ATP Affinity Kapp (ATeam1.03 and ATeam1.03YEMK). The protocol:
as §1, §5, §6

The target of test [21] is T12, ATeam1.03YEMK R103E/R115E.
T12 construct: YEMK epsilon subunit flanked by mseCFP and mVenus; polyhistidine-tagged
The test is described as above. The format is binding. The note with it: SD, n = 4; read-out: ATP Affinity Kapp (ATeam1.03 and ATeam1.03YEMK). Here is the method: as §1, §5, §6

Test [22] addresses T13, ATeam1.03YEMK R103E/R115A.
T13 construct: YEMK epsilon subunit flanked by mseCFP and mVenus; polyhistidine-tagged
The test is described as above. The format is binding. The note with it: SD, n = 4; read-out: ATP Affinity Kapp (ATeam1.03 and ATeam1.03YEMK). Here is the method: as §1, §5, §6

In test [23] the target is T14, ATeam1.03YEMK (WT) (Bacillus subtilis, UniProt P37812, G131E/INS132K/K132M/M60Y).
T14 construct: gene atpC; epsilon subunit with four interface residues exchanged to match Bacillus sp; PS3, flanked by mseCFP and mVenus; polyhistidine-tagged
The test is described as above. The note with it: SD, n = 4; read-out: ATP Affinity Kapp (ATeam1.03 and ATeam1.03YEMK). The format is binding. Here is the method:
as §1, §5, §6

Test [24] deals with T15, ATeam1.03YEMK R103A/R115E.
T15 construct: YEMK epsilon subunit flanked by mseCFP and mVenus; polyhistidine-tagged
Described as above. The class given is binding. The note with it: SD, n = 4; read-out: ATP Affinity Kapp (ATeam1.03 and ATeam1.03YEMK). The protocol: as §1, §5, §6

For test [25], the target named is T16, ATeam1.03YEMK R115A (Bacillus subtilis, UniProt P37812, G131E/INS132K/K132M/M60Y/R115A).
T16 construct: gene atpC; YEMK epsilon subunit flanked by mseCFP and mVenus; polyhistidine-tagged
The test is described as above. The format is binding. The note with it: SD, n = 4; read-out: ATP Affinity Kapp (ATeam1.03 and ATeam1.03YEMK). The protocol: as §1, §5, §6

The target of test [26] is T9, ATeam3.10 R103E/R115E. The test can be described thus: Steady-state FRET ratio ATP dose response of 0.125 uM purified ATeam3.10 sensor at room temperature in 50 mM MOPS-KOH pH 7.3, 50 mM KCl, 0.5 mM free Mg2+, 0.05% Triton-X100 (4 to 9 replicates). The note with it: SD, n = 4; read-out: ATP Affinity Kapp. The class given is binding. The arrangement: gene uncC; epsilon subunit flanked by mseCFP and mVenus; polyhistidine-tagged. Here is the method:
as §1, §3, §4

Molecules are shown by their SMILES.

T5 sequence (A0A0M5MQR7 entry or part of it R103A/R115A): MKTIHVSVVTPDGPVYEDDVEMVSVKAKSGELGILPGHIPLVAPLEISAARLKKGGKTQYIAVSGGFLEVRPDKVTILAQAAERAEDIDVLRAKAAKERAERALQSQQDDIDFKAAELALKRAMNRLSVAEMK
T3 sequence (A0A0M5MQR7 entry or part of it R103E): as the sequence (A0A0M5MQR7 entry or part of it R103A/R115A) above, with A103E, A115R counted along it
T6 sequence (A0A0M5MQR7 entry or part of it R115A): as the sequence (A0A0M5MQR7 entry or part of it R103A/R115A) above, with A103R counted along it
T2 sequence (A0A0M5MQR7 entry or part of it R103A/R115E): as the sequence (A0A0M5MQR7 entry or part of it R103A/R115A) above, with A115E counted along it
T9 sequence (A0A0M5MQR7 entry or part of it R103E/R115E): as the sequence (A0A0M5MQR7 entry or part of it R103A/R115A) above, with A103E, A115E counted along it
T8 sequence (A0A0M5MQR7 entry or part of it R103A): as the sequence (A0A0M5MQR7 entry or part of it R103A/R115A) above, with A115R counted along it
T1 sequence (A0A0M5MQR7 1-133): as the sequence (A0A0M5MQR7 entry or part of it R103A/R115A) above, with A103R, A115R counted along it
T7 sequence (A0A0M5MQR7 entry or part of it R115E): as the sequence (A0A0M5MQR7 entry or part of it R103A/R115A) above, with A103R, A115E counted along it
T4 sequence (A0A0M5MQR7 entry or part of it R103E/R115A): as the sequence (A0A0M5MQR7 entry or part of it R103A/R115A) above, with A103E counted along it
T16 sequence (P37812 whole entry, stated change not applied): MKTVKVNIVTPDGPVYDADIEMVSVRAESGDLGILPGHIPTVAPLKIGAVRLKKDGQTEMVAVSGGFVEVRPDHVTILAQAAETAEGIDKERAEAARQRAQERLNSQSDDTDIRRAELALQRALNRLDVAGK
T14 sequence (P37812 whole entry, stated change not applied): as above
T10 sequence (P37812 whole entry): as the sequence (P37812 whole entry, stated change not applied) above
T11 sequence (P37812 whole entry, stated change not applied): as above

With `O=CC[C@@H](O)[C@H](O)[C@H](O)CO` [DG, 2-deoxyglucose], the “effect on cytosolic ATP” value in test [1] (HEK293, 10 mM glucose) is reported as “did not cause a drastic loss of ATP”; in test [1] (HEK293, absence of glucose), “did cause ATP depletion”.
As for `Nc1ncnc2c1ncn2[C@@H]1O[C@H](COP(=O)(O)OP(=O)(O)O)[C@@H](O)[C@H]1O` [ADP, Adenosine diphosphate], the Kd in [2] is 130 ± 10 µM; in test [3], 17 ± 1 µM; in test [4] it was 68 ± 3 µM; in test [5], 40 ± 2 µM; in test [6] it was 32 ± 5 µM; in test [7], 74 ± 7 µM. Further, the Kd in test [8] was found to be 29 ± 2 µM; in [9] it was 82 ± 6 µM; in test [10], 51 ± 6 µM.
In the case of `Nc1ncnc2c1ncn2[C@@H]1O[C@H](COP(=O)(O)OP(=O)(O)OP(=O)(O)O)[C@@H](O)[C@H]1O` [ATP, Adenosine triphosphate], the Kd in [11] turned out to be 0.8 µM; in [12] it was 0.2 µM; in test [13] it was 0.6 µM; in test [14], 0.7 µM; in test [15], 0.2 µM; in [16] it was 0.6 µM. Further, the Kd in test [17] was 0.3 µM; in [18], 0.8 µM; in test [19], 1000 µM; in test [20], 700 µM; in [21] it was 2200 µM; in test [22], 1900 µM. Moreover, the Kd in test [23] was found to be 200 µM; in [24] it was 1900 µM; in [25], 1800 µM; in test [26], 0.8 µM.
